The source of these data is US7425635B2, “Prodrugs and conjugates of thiol- and selenol-containing compounds and methods of use thereof” (University of Utah Research Foundation, priority 1997, dated 2008).

The structures appear in SMILES notation.

The subject of series [1] is GPx. The experiment in a line: Hepatic cytosolic GPx (H202) activity after 7 daily ip doses. Type of series: in vivo, mice. The note with it: 7 daily doses ip, hepatic cytosol; naive 894 ± 36.
In another series the test system is Gst-mu. Briefly: Northern blot of liver Gst-mu mRNA after ip dosing. Type of series: in vivo, mice. The settings on record: mean ± SEM. On the procedure:
(§1) Linking efficacy to biochemical parameters and a mechanism was limited in the initial study by only two parameters, [Se] and GPx activity. The in-vivo effects of selenazolidine compounds were then evaluated using, in addition to GPx, glutathione S-transferases (GSTs), quinone oxidoreductases (NQORs), UDP-glucuronosyltransferases (UGTs), and microsomal epoxide hydrolase (mEH). To investigate transcriptional changes of these classes of enzymes, it was necessary to develop a battery of cDNA probes for use in Northern blot analysis of RNA extracted from treated animals (Table 2).
(§2) Whether the selenaproline compounds had the ability to up-regulate the transcription of Phase II and/or other “protective” enzymes was first evaluated following a single dose of each (Table 3). […] The experiment was repeated but with a 7-day treatment regimen (Table 4), the time period for which the compounds were given in the diet before NNK administration in the tumor experiment reported in Table 1. […] With multiple doses, SCA induced Ugt1a9, an mRNA that was not changed with a single dose. […] The elevation in the Gst-mu transcript was unique to multiple OSCA treatment. The elevation of the GST-alpha mRNA was also seen with SCA treatment. Microsomal epoxide hydrolase mRNA was robustly elevated by multiple doses of all three selenaproline compounds, an effect not anticipated from the single dose experiment where not even minor changes were apparent.

For a further series, the system named is Ugt1a6. Briefly: Northern blot of liver Ugt1a6 mRNA after ip dosing. The note with it: mean ± SEM. The format is in vivo, mice. On the procedure:
as §1, §2

For the next series, the system named is Ugt1a9. The experiment in a line: Northern blot of liver Ugt1a9 mRNA after ip dosing. The format is in vivo, mice. The note with it: 1.25 mg Se/kg, mean ± SEM. On the procedure:
as §1, §2

The subject of another series is GST. The experiment in a line: Hepatic cytosolic GST (CDNB) activity after 7 daily ip doses. Type of series: in vivo, mice. The note with it: 7 daily doses ip, hepatic cytosol; naive 5248 ± 503.
A short description of series [2]: Body weight gain and liver weight in four-month feeding study. The format is in vivo. The settings on record: mice, diet 15 ppm Se, NNK. On the procedure:
(§3) Where indicated, mice (16 g) were given diets fortified with SCA, MSCA or OSCA (15 ppm Se) for 1 week prior to NNK (10 umol, ip). Two other groups received the unmodified AIN-76A diet, with and without NNK administration. All groups were maintained on their pretreatment diet until the animals were sacrificed after 16 weeks. Liver GPx activity is expressed as μmol NADPH oxidized [in regenerating GSH]/min/mg 10,000 g×20 min supernatant protein; RBC activity as μmol/min/mg RBC lysate hemoglobin.

The test system of another series is mEH. Briefly: Northern blot of liver mEH mRNA after ip dosing. Type of series: in vivo, mice. The note with it: mean ± SEM. As for the experimental part:
as §1, §2

Another series concerns Gst-alpha. Briefly: Northern blot of liver Gst-alpha mRNA after ip dosing. The format is in vivo, mice. The settings on record: mean ± SEM. As for the experimental part:
as §1, §2

The next series has as its system Ugt1a1. Briefly: Northern blot of liver Ugt1a1 mRNA after ip dosing. The format is in vivo, mice. The note with it: mean ± SEM. On the procedure:
as §1, §2

For series [3], the system named is GPx. Briefly: Hepatic and RBC (tButylOOH) GPx activity in four-month feeding study. Type of series: in vivo. The note with it: mice, diet 15 ppm Se, NNK; for Hepatic (tButylOOH) GPx: liver. On the procedure: (§4) Three novel selenazolidines, 2-methyl-, 2-oxo- and 2-unsubstituted (i.e., selenaproline) selenazolidine-4[R]-carboxylic acid (MSCA, OSCA, and SCA respectively) that had been synthesized as prodrugs of selenocysteine were evaluated for their potential to act as cancer chemopreventive agents. [Se] and GPx activity were evaluated.
as §3

Series [4] has as its system GPx. The experiment in a line: Northern blot of liver GPx mRNA after ip dosing. Type of series: in vivo, mice. The note with it: mean ± SEM. As for the experimental part:
as §1, §2

The next series concerns NNK lung tumor. Briefly: NNK lung tumor four-month feeding study. The settings on record: mice, diet 15 ppm Se from 1 week prior to NNK (10 umol, ip), sacrificed after 16 weeks. Type of series: in vivo. On the procedure:
as §4, §3

A short description of series [5]: Stability in aqueous solution. Type of series: physicochemical. The settings on record: compared with MSCA; previous studies. From the text:
Accordingly, additional compounds were synthesized with a range of partition coefficients (Table 6) and evaluated their ability to alter gene transcription following single (Table 7) and multiple (Table 8) doses. The new 2-(R,S)-substituted-4(R)-carboxylic acid derivatives involving 2-butyl, 2-cyclohexyl, 2-phenyl and 2-(2-hydroxyphenyl) were synthesized utilizing the reaction of selenocysteine and the appropriate carboxaldehyde. They were purified by crystallization from ethanol/acetonitrile mixtures and their molecular structures were verified by spectral methods of analysis (′HNMR, ^13CNMR, ESIMs and HRMS).

Series [6] in a line: sALT (hepatotoxicity) after 7 daily ip doses. Type of series: in vivo. Also on record: unit not given here. The settings on record: 7 daily doses ip, 1.25 mg Se/kg, with corn oil; untreated mice 37.5 ± 2.9. The text has this:
Many of the mRNA changes seen with a single dose were not sustained with multiple dosing. Changes in Ugt transcripts after multiple dosing were noticeably absent. Unique to BSCA among the four new compounds investigated was its ability to induce Gst-alpha, Gst-mu and GPx mRNAs. For the Gst-alpha transcripts, which appeared elevated by corn oil, the BSCA increase was much greater than the vehicle alone (8-fold versus 2-fold) and was statistically significant (p<0.05). BSCA shared with PhOHSCA the ability to elevate mEH mRNA.

[7] abbreviates: 1 dose ip, 1.25 mg Se/kg, liver RNA 24 hours after dosing.
Setting [8] is: 7 daily doses ip, 1.25 mg Se/kg, liver RNA 24 hours after the last dose.
The mark [9] stands for this setting: 1 dose ip, liver RNA 24 hours after dosing.
[10] abbreviates: 1 dose ip, 1.25 mg Se/kg in corn oil, liver RNA 24 hours after dosing.
Where [11] appears, read: 7 daily doses ip, 1.25 mg Se/kg, with corn oil, liver RNA 24 hours after the last dose.

Regarding `CC1N[C@H](C(=O)O)C[Se]1` (mixture of isomers) [MSCA, 2(R,S)-Methylselenazolidine-4(R)-carboxylic acid], the “GPx (H202) activity” value in the series with GPx [1] was 944 ± 32 nmol/mg cytosol (100,000 g supernatant) protein/min. Further, the results for the “Gst-mu mRNA” value with Gst-mu (setting [7]) and in the series with Gst-mu (setting [8]) were 1.07 ± 0.57 fold change from naive and 1.65 ± 0.18 fold change from naive, respectively. The “Ugt1a6 mRNA” value was determined as 1.21 ± 0.28 fold change from naive in the series with Ugt1a6 (setting [7]) and 1.02 ± 0.15 fold change from naive with Ugt1a6 (setting [8]). Also, the “Ugt1a9 mRNA” value in the series on Ugt1a9 (setting [9]) was 1.47 ± 0.18 fold change from naive; in the series with Ugt1a9 (7 daily doses ip, liver RNA 24 hours after the last dose) it was 1.22 ± 0.29 fold change from naive. Moreover, the “GST (CDNB) activity” value with GST is given as 6948 ± 502 nmol/mg cytosol (100,000 g supernatant) protein/min. In addition, the “Body wt gain (%)” value in series [2] stood at 49.3%. Moreover, in [2], the “Liver weight” value is 1.17 ± 0.02 g. The “mEH mRNA” value was 1.06 ± 0.12 fold change from naive in the series with mEH (setting [7]) and 3.35 ± 1.21 fold change from naive in the series with mEH (setting [8]). Besides, the “Gst-alpha mRNA” value in the series on Gst-alpha (setting [7]) is reported as 1.00 ± 0.19 fold change from naive; in the series with Gst-alpha (setting [8]) it was 1.18 ± 0.33 fold change from naive. Also, the entries for the “Ugt1a1 mRNA” value in the series with Ugt1a1 (setting [7]) and with Ugt1a1 (setting [8]) were 1.07 ± 0.11 fold change from naive and 1.15 ± 0.09 fold change from naive, respectively. Moreover, the “RBC (tButylOOH) GPx” value in the series on GPx [3] is 220 ± 32 μmol/min/mg RBC lysate hemoglobin. Also, the “Hepatic (tButylOOH) GPx” value with GPx [3] is 564 ± 46 μmol NADPH oxidized/min/mg 10,. In the series with GPx [4] (setting [7]), the “GPx (1.5 kb) mRNA” value was 1.65 ± 0.27 fold change from naive. Moreover, the “GPx mRNA” value in the series with GPx [4] (setting [8]) came out at 1.43 ± 0.35 fold change from naive. Further, the “NNK Tumors” value in the series with NNK lung tumor worked out at 8.3 ± 0.9.
As for `CCCCC1NC(C(=O)O)C[Se]1` (stereo not drawn) [BSCA, 2-n-butyl-SCA], in the series on Gst-mu (setting [10]), the “Gst-mu mRNA” value was determined as 1.58 ± 0.46 fold change from naive. Further, the entries for the “Ugt1a6 mRNA” value in the series on Ugt1a6 (setting [10]) and in the series with Ugt1a6 (setting [11]) were 1.95 ± 0.21 fold change from naive and 1.84 ± 0.54 fold change from naive, respectively. Moreover, in series [5], the “Stability in aqueous solution” value is “much more stable in aqueous solution than MSCA”. Further, the “Ugt1a9 mRNA” value in the series on Ugt1a9 (7 daily doses ip, with corn oil, liver RNA 24 hours after the last dose) turned out to be 1.69 ± 0.35 fold change from naive. Also, the “mEH mRNA” value in the series on mEH (setting [10]) is reported as 0.69 ± 0.19 fold change from naive. The “Gst-alpha mRNA” value with Gst-alpha (setting [10]) is 1.39 ± 0.05 fold change from naive. For the same compound, in series [6], the sALT came to 37.1 ± 2.7. Moreover, the “Ugt1a1 mRNA” value in the series on Ugt1a1 (setting [10]) turned out to be 0.83 ± 0.28 fold change from naive; with Ugt1a1 (setting [11]) it was 1.21 ± 0.26 fold change from naive. For the same compound, in the series on GPx [4] (setting [10]), the “GPx mRNA” value was determined as 1.58 ± 0.46 fold change from naive.
For the compound `O=C(O)C1C[Se]CN1` (stereo not drawn) [SCA, selenazolidine-4-carboxylic acid], in the series on GPx [1], the “GPx (H202) activity” value is on record as 862 ± 81 nmol/mg cytosol (100,000 g supernatant) protein/min. For the same compound, the “Gst-mu mRNA” value in the series with Gst-mu (setting [7]) is reported as 1.28 ± 0.09 fold change from naive; in the series on Gst-mu (setting [8]), 0.58 ± 0.11 fold change from naive. The “Ugt1a6 mRNA” value in the series with Ugt1a6 (setting [7]) is 1.01 ± 0.29 fold change from naive; in the series on Ugt1a6 (setting [8]), 1.01 ± 0.07 fold change from naive. Moreover, the “Ugt1a9 mRNA” value in the series on Ugt1a9 (setting [9]) came out at 1.35 ± 0.50 fold change from naive. Further, the “GST (CDNB) activity” value in the series with GST is given as 6576 ± 595 nmol/mg cytosol (100,000 g supernatant) protein/min. Moreover, the “Body wt gain (%)” value in series [2] is 51.1%. Besides, the “Liver weight” value in [2] was determined as 1.18 ± 0.02 g. In addition, the “mEH mRNA” value with mEH (setting [7]) is 1.36 ± 0.40 fold change from naive; in the series with mEH (setting [8]), 3.25 ± 1.80 fold change from naive. In addition, the “Gst-alpha mRNA” value in the series with Gst-alpha (setting [7]) is 1.15 ± 0.28 fold change from naive. The “Ugt1a1 mRNA” value in the series on Ugt1a1 (setting [7]) amounted to 1.03 ± 0.18 fold change from naive; with Ugt1a1 (setting [8]) it was 2.25 ± 0.25 fold change from naive. In addition, the “RBC (tButylOOH) GPx” value in the series with GPx [3] is 253 ± 33 μmol/min/mg RBC lysate hemoglobin. For the same compound, the “Hepatic (tButylOOH) GPx” value with GPx [3] is 409 ± 46 μmol NADPH oxidized/min/mg 10,. Also, the “GPx (1.5 kb) mRNA” value with GPx [4] (setting [7]) amounted to 1.12 ± 0.04 fold change from naive. Besides, the “GPx mRNA” value in the series with GPx [4] (setting [8]) is on record as 1.55 ± 0.76 fold change from naive. In addition, the “NNK Tumors” value with NNK lung tumor is reported as 6.7 ± 0.8.
